From article PMC9481570, “A small molecule antagonist of SMN disrupts the interaction between SMN and RNAP II” (Nature Communications, 2022)
“And” between values parts separate entries of the source, which are not always exact repeats. Identical values can stand only once.

How the values were obtained:
Test in all cases: Affinity-purification and mass spectrometry (AP-MS) chemical proteomics, all proteins;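 on Difference: 200 µM free competitor with 20 µM biotin probe overnight in lysate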
Assay type in all cases: binding
[1] = biological target: T1, proteins displaced from immobilized biotin-Cmpd 1 pulldowns (U2OS cell lysate) (Homo sapiens, UniProt Q9BSJ8); settings: GN=ESYT1 (Q9BSJ8)
T1 construct: endogenous in cells; host or cells: U2OS
T1 sequence (Q9BSJ8 whole entry): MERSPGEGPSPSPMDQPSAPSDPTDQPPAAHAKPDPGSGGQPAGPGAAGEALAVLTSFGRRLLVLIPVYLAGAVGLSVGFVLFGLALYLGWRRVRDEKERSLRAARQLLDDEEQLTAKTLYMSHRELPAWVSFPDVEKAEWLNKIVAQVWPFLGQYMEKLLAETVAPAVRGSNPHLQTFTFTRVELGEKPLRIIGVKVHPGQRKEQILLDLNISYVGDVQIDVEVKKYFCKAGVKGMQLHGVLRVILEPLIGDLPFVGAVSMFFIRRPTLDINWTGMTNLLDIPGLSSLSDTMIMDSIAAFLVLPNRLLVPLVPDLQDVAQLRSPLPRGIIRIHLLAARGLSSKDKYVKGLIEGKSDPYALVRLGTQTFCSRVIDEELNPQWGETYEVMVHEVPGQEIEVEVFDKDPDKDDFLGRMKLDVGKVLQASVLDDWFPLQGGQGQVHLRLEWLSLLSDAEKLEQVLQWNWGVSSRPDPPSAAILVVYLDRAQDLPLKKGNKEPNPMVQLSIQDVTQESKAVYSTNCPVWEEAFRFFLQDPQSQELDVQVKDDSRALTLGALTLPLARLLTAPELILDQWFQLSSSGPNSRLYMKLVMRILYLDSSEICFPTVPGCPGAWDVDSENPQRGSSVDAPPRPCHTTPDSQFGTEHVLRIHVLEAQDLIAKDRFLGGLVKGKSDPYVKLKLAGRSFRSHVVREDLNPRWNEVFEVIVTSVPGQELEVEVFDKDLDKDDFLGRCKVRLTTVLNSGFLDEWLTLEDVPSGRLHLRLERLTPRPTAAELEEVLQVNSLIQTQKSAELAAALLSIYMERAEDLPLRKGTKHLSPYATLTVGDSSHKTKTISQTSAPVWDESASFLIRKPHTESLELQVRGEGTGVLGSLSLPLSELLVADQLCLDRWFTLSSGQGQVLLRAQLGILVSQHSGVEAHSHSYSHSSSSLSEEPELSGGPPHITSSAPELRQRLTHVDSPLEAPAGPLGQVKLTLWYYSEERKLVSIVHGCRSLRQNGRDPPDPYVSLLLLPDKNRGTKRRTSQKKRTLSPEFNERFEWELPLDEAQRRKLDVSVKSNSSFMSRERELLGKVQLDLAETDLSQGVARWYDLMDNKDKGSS

[2] = biological target: T2, proteins displaced from immobilized biotin-Cmpd 1 pulldowns (U2OS cell lysate) (Homo sapiens, UniProt Q9BUF5); settings: GN=TUBB6 (Q9BUF5)
T2 construct: endogenous in cells; host or cells: U2OS
T2 sequence (Q9BUF5 whole entry): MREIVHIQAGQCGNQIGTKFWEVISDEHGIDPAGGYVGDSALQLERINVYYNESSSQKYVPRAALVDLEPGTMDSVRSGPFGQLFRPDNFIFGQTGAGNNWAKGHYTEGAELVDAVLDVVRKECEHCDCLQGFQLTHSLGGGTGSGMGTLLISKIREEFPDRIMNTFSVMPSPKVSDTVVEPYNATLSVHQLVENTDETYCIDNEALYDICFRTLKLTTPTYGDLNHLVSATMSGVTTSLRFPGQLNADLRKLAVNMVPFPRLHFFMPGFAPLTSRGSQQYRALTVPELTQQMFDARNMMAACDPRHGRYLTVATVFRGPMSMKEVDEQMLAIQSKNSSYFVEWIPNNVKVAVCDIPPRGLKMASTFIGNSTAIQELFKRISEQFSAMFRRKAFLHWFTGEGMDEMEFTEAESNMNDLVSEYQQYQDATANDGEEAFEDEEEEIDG

[3] = biological target: T3, proteins displaced from immobilized biotin-Cmpd 1 pulldowns (U2OS cell lysate) (Homo sapiens, UniProt Q9NZT1); settings: GN=CALML5 (Q9NZT1)
T3 construct: endogenous in cells; host or cells: U2OS
T3 sequence (Q9NZT1 whole entry): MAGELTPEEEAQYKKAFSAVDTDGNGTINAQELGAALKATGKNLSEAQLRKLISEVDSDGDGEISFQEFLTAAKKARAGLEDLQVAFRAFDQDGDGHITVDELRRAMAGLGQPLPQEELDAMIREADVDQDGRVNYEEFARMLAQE

[4] = biological target: T4, proteins displaced from immobilized biotin-Cmpd 1 pulldowns (U2OS cell lysate) (Homo sapiens, UniProt O14979); settings: GN=HNRNPDL (A0A087WU03)
T4 construct: endogenous in cells; host or cells: U2OS
T4 sequence (O14979 whole entry): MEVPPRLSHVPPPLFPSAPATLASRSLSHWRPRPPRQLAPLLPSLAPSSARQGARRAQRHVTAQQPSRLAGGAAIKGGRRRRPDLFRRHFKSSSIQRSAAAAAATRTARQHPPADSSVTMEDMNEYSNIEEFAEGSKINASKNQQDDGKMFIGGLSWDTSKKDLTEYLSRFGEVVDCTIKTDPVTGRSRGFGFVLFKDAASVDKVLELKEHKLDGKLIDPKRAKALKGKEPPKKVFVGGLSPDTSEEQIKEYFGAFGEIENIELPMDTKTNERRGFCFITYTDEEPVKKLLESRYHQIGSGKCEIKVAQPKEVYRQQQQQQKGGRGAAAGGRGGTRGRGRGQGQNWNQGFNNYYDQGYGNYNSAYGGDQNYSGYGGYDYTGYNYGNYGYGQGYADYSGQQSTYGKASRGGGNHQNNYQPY

[5] = biological target: T5, proteins displaced from immobilized biotin-Cmpd 1 pulldowns (U2OS cell lysate) (Homo sapiens, UniProt Q9NQC3); settings: GN=RTN4 (Q9NQC3)
T5 construct: endogenous in cells; host or cells: U2OS
T5 sequence (Q9NQC3 whole entry): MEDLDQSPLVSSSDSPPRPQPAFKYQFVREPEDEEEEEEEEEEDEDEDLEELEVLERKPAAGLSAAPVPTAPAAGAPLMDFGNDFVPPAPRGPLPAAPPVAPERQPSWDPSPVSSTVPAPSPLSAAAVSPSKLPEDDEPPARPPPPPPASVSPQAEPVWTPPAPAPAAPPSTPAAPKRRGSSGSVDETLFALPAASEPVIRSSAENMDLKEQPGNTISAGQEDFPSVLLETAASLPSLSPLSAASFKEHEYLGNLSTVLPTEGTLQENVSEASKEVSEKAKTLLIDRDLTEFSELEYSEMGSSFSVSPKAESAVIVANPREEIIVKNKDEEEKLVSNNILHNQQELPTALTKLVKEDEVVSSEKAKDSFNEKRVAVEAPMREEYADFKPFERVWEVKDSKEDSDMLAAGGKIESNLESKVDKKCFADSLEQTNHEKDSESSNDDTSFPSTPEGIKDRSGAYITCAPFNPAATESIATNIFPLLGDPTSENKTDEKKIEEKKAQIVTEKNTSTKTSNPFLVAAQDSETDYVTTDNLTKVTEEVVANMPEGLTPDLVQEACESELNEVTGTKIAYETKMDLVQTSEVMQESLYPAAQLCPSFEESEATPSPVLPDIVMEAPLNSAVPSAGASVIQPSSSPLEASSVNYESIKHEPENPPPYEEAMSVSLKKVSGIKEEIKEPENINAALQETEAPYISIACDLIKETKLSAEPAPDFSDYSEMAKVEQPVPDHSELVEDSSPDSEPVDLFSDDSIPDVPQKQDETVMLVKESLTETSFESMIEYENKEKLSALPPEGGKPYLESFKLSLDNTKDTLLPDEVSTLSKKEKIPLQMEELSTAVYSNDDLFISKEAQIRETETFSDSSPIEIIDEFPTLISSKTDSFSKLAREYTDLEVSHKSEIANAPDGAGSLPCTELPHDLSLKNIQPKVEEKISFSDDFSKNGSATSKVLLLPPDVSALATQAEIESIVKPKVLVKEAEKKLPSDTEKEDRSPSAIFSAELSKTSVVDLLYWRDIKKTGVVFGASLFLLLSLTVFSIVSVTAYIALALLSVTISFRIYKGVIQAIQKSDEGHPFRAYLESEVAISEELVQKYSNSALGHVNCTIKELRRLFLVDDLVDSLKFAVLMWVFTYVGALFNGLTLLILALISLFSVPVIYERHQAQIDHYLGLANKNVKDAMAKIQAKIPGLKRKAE

[6] = biological target: T6, proteins displaced from immobilized biotin-Cmpd 1 pulldowns (U2OS cell lysate) (Homo sapiens, UniProt Q9BZG1); settings: GN=RAB34 (Q9BZG1)
T6 construct: endogenous in cells; host or cells: U2OS
T6 sequence (Q9BZG1 whole entry): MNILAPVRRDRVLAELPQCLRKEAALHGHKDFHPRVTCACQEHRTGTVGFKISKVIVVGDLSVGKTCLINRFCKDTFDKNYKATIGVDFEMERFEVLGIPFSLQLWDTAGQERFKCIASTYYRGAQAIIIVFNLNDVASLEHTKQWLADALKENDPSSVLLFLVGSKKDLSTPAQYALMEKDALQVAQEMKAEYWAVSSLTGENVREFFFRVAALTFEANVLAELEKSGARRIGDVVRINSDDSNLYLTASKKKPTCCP

[7] = biological target: T7, proteins displaced from immobilized biotin-Cmpd 1 pulldowns (U2OS cell lysate) (Homo sapiens, UniProt Q6ZVX7); settings: GN=NCCRP1 (Q6ZVX7)
T7 construct: endogenous in cells; host or cells: U2OS
T7 sequence (Q6ZVX7 whole entry): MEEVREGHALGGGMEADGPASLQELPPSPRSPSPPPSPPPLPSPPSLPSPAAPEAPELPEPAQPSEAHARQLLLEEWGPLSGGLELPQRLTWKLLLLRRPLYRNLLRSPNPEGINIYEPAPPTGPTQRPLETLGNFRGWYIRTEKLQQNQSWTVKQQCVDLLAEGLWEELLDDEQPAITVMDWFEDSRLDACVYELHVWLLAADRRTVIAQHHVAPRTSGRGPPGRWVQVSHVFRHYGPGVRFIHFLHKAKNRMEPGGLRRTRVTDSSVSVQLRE

[8] = biological target: T8, proteins displaced from immobilized biotin-Cmpd 1 pulldowns (U2OS cell lysate) (Homo sapiens, UniProt P09493); settings: GN=TPM1 (H0YKX5)
T8 construct: endogenous in cells; host or cells: U2OS
T8 sequence (P09493 whole entry): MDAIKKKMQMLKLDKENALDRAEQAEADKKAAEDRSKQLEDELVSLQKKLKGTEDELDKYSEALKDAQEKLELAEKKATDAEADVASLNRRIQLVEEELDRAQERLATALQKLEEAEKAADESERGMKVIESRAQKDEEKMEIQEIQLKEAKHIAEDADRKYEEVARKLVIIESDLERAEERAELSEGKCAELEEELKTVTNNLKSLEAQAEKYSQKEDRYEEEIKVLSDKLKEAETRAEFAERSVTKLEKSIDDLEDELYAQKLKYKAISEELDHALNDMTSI

[9] = biological target: T9, proteins displaced from immobilized biotin-Cmpd 1 pulldowns (U2OS cell lysate) (Homo sapiens, UniProt Q15366); settings: GN=PCBP2 (Q15366)
T9 construct: endogenous in cells; host or cells: U2OS
T9 sequence (Q15366 whole entry): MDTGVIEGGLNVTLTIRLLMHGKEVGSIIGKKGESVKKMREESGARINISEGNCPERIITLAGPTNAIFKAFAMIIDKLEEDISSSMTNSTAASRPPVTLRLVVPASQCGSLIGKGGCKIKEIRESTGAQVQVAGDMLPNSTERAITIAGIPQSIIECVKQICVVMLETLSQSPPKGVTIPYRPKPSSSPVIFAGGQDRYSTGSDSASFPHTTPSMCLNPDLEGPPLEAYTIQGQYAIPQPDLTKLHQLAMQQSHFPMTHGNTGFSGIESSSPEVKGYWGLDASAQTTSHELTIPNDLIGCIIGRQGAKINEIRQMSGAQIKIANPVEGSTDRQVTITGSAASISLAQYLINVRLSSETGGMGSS

[10] = biological target: T10, proteins displaced from immobilized biotin-Cmpd 1 pulldowns (U2OS cell lysate) (Homo sapiens, UniProt O43684); settings: GN=BUB3 (O43684)
T10 construct: endogenous in cells; host or cells: U2OS
T10 sequence (O43684 whole entry): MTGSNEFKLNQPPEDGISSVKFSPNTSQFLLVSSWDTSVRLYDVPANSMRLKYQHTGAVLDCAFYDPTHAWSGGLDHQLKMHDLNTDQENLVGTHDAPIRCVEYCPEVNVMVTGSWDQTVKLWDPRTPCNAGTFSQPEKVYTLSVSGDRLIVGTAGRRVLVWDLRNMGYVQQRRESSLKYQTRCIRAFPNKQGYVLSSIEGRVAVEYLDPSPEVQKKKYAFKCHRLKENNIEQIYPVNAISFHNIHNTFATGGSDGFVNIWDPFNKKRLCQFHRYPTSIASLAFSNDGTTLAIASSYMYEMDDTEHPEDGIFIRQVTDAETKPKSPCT

In the case of `Cn1c2c(c(=N)c3c1CCC3)CCC2` [Compound 1, 4-methyl-2,3,4,5,6,7-hexahydrodicyclopenta[b,e]pyridin-8(1H)-imine], the Difference ([1]; Cmpd minus DMSO, -LOG(P-value) 2.56654) is reported as 4.81, the “iBAQ Cmpd” value ([1]; replicates 1-3) is reported as 19.5229 and 18.9864 and 18.8876 and the Difference ([2]; Cmpd minus DMSO, -LOG(P-value) 2.60513) is reported as 3.82. The “iBAQ Cmpd” value ([2]; replicates 1-3) was 19.1705 and 17.8309 and 17.4529, the Difference ([3]; Cmpd minus DMSO, -LOG(P-value) 2.02756) was -2.389 and the “iBAQ Cmpd” value ([3]; replicates 1-3) was 18.8431 and 20.0939 and 20.182. The Difference ([4]; Cmpd minus DMSO, -LOG(P-value) 0.798528) was 1.553, the “iBAQ Cmpd” value ([4]; replicates 1-3) was 20.8595 and 22.7108 and 22.2667 and the Difference ([5]; Cmpd minus DMSO, -LOG(P-value) 0.85719) was 2.734. The “iBAQ Cmpd” value ([5]; replicates 1-3) was 19.1423 and 18.4673 and 18.3569, the Difference ([6]; Cmpd minus DMSO, -LOG(P-value) 1.66704) was 2.667 and the “iBAQ Cmpd” value ([6]; replicates 1-3) was 18.8001 and 17.2488 and 16.5904. For the same molecule, the Difference ([7]; Cmpd minus DMSO, -LOG(P-value) 1.30206) was -3.138, the “iBAQ Cmpd” value ([7]; replicates 1-3) was 15.2988 and 15.7784 and 15.638 and the Difference ([8]; Cmpd minus DMSO, -LOG(P-value) 1.96752) was -0.7334. For the same molecule, the “iBAQ Cmpd” value ([8]; replicates 1-3) was 21.937 and 22.2825 and 22.2241, the Difference ([9]; Cmpd minus DMSO, -LOG(P-value) 0.939549) was -2.733 and the “iBAQ Cmpd” value ([9]; replicates 1-3) was 15.8606 and 15.1154 and 18.8903. The Difference ([10]; Cmpd minus DMSO, -LOG(P-value) 1.63376) was 1.137 and the “iBAQ Cmpd” value ([10]; replicates 1-3) was 19.492 and 19.0748 and 18.4379.
